The values that follow are results of earlier work, collected in patent US8134031B2, “Extraction process for aldehyde product separation and catalyst recovery” (Dow Global Technologies LLC, priority 2007, dated 2012).

Counter-ions that a name gives are not always drawn.

For one data set the following is noted: 22° C.; experimental value (Yaw's Handbook).
Consider `CCCC(=O)OCC` [Ethyl butyrate], for which the Solubility in water is 6168 ppmw.

With `CCCOC=O` [Propyl formate], the Solubility in water is recorded as 22000 ppmw.

The same data set, now with this note: 25° C.
For `C=CCCCCCC` [1-Octene], the H2O solubility is given as 4.10 ppm.

Turning to `CCCCCCC` [Heptane], the H2O solubility is on record as 2.24 ppmw.

`CCCCCC` [Hexane]: the H2O solubility is given as 13.3 ppmw.

The same data set, now with this note: 25° C.; estimated value (Yaw's Handbook).
Take `CCC(O)C(C)C` (stereo not drawn) [2-Methyl-3-pentanol]: the Solubility in water is 25882 ppmw.

Take `CCC(C)C=O` (stereo not drawn) [2-Methylbutanal]: the Solubility in water is reported as 28212 ppmw.

As for `CC(C)CC=O` [3-Methylbutanal], the Solubility in water is reported as 27392 ppmw.

Consider `CCC(=O)C(C)C` [Ethyl isopropyl ketone], for which the Solubility in water is given as 22865 ppmw.

`CCCOC(C)=O` [Propyl acetate]: the Solubility in water is given as 16787 ppmw.

Still in this data set, the particulars now being: 25° C.; experimental value (Yaw's Handbook).
As to `CCCCCCC=O` [1-Heptanal], the Solubility in water is 1516 ppmw.

As to `C=CCCCCCC` [1-Octene], the Solubility in water was 4.10 ppmw.

Take `CCCCCO` [1-Pentanol]: the Solubility in water is 22000 ppmw.

As for `CCCCC(C)=O` [2-Hexanone], the Solubility in water is given as 16400 ppmw.

In the case of `CCC(C)CO` (stereo not drawn) [2-Methyl-1-butanol], the Solubility in water is given as 30000 ppmw.

Turning to `CCCC(C)O` (stereo not drawn) [2-Pentanol], the Solubility in water was 45000 ppmw.

Turning to `CCCC(=O)CC` [3-Hexanone], the Solubility in water is on record as 14700 ppmw.

As for `CC(C)CCO` [3-Methyl-1-butanol], the Solubility in water is recorded as 27000 ppmw.

For the molecule `CC(C)C(C)O` (stereo not drawn) [3-Methyl-2-butanol], the Solubility in water is given as 56000 ppmw.

Turning to `CCC(O)CC` [3-Pentanol], the Solubility in water is reported as 52000 ppmw.

For `O=C1CCCCC1` [Cyclohexanone], the Solubility in water is 93190 ppmw.

On to `CCC(=O)CC` [Diethyl ketone], for which the Solubility in water was 34000 ppmw.

For the molecule `CC(C)OC(C)C` [Diisopropyl ether], the Solubility in water is given as 11250 ppmw.

As for `CCOC(C)=O` [Ethyl acetate], the Solubility in water was 73720 ppmw.

Consider `CCOC(=O)CC` [Ethyl propanoate], for which the Solubility in water is reported as 22000 ppmw.

For `CCCCCCC` [Heptane], the Solubility in water is given as 2.24 ppmw.

Take `CCCCCC` [Hexane]: the Solubility in water is 13.3 ppmw.

Take `CC(=O)OC(C)C` [Isopropyl acetate]: the Solubility in water is 29000 ppmw.

Regarding `CCCC(=O)OC` [Methyl butyrate], the Solubility in water is 15000 ppmw.

For `C=C(C)C(C)=O` [Methyl isopropenyl ketone], the Solubility in water is reported as 47000 ppmw.

As for `CC(=O)C(C)C` [Methyl isopropyl ketone], the Solubility in water is 60800 ppmw.

In the case of `CCCC(C)=O` [Methyl propyl ketone], the Solubility in water is given as 55360 ppmw.

With `CCCCC=O` [Pentanal], the Solubility in water is on record as 11700 ppmw.
